Test results from patent US9421177B2, “Imidamide sphingosine kinase inhibitors” (University of Virginia Patent Foundation, priority 2009, dated 2016).

Assays:
[1] = Pro-drug activity: conversion of amidoxime to amidine in mice; assay type: in vivo; conditions: 20 mpk, IP or oral, FIG. 7B
Procedure: Mice were dosed with 20 mpk of amidoxime, VPC96143, both IP and orally. S1P in plasma and organs was measured at times ASAP, 2 hrs and 24 hrs. The compound amidine, VPC96077, was also measured in plasma and organs at times ASAP, 2 hrs and 24 hrs.
Mice Numbering • 51: dosed with 20 mpk amidoxime VPC96143 administered IP. Plasma extracted ASAP and 2 hrs. Organs harvested at 2 hrs. • 52: dosed with 20 mpk amidoxime VPC96143 administered IP. Plasma extracted ASAP and 24 hrs. Organs harvested at 2 hrs. • 53: dosed with 20 mpk amidoxime VPC96143 administered orally. Plasma extracted ASAP and 2 hrs. Organs harvested at 2 hrs.

human SphK1 = human SphK1 (Homo sapiens (Human), UniProt Q9NYA1); assay: Determination of Ki values, recombinant human SphK1 in Sf9 cell homogenates; assay type: biochemical; conditions: amidine HCl salt; recombinant human SphK1, Sf9 homogenate, 37 C, 20 minutes; read-out: SphK1 inhibitory constant (Ki)
Procedure: (§1) Sphingosine kinase activity was assessed as described previously (Kharel, Y., Lee, S., Snyder, A. H., Sheasley-O'Neill, S. L., Morris, M. A., Setiady, Y., Zhu, R., Zigler, M. A., Burcin, T. L., Ley, K., Tung, K. S. K., Engelhard, V. H., Macdonald, T. L. and Lynch, K. R. Sphingosine kinase 2 is required for modulation of lymphocyte traffic by FTY720. J Biological Chemistry 280: 36865-36872 (2005)). High levels of human sphingosine kinase type 1 (mSK1) and mouse sphingosine kinase type 2 (mSK2) were expressed in Sf9 insect cells by infection with cognate baculoviruses. Crude homogenates were incubated with γ-[^32P]ATP and 10 micromolar D-erythro-sphingosine in the presence of 100 micromolar concentrations of test compounds for 20 minutes at 37 C. The product, radiolabeled S1P, was isolated by extraction into organic solvents after acidification and […] by thin layer chromatography. […]
(§2) Crude homogenates of Sf9 cells containing high levels of recombinant mouse SphK2 or human SphK1 were incubated with γ-[^32P]ATP and various concentrations (0 to 500 micromolar) of D-erythro-sphingosine for 20 minutes […] at 37 C in the presence of fixed concentration of test compound. The product, radiolabeled S1P, was isolated by extraction into organic solvents followed by thin layer chromatography, recovered and radioactivity measured by liquid scintillation counting. […]

mouse SphK2 = mouse SphK2 (Mus musculus (Mouse), UniProt Q9JIA7); assay: Determination of Ki values, recombinant mouse SphK2 in Sf9 cell homogenates; assay type: biochemical; conditions: amidine HCl salt; recombinant mouse SphK2, Sf9 homogenate, 37 C, 20 minutes; read-out: SphK2 inhibitory constant (Ki)
Procedure: as §1, §2

human SphK1, sequence (Q9NYA1 whole entry): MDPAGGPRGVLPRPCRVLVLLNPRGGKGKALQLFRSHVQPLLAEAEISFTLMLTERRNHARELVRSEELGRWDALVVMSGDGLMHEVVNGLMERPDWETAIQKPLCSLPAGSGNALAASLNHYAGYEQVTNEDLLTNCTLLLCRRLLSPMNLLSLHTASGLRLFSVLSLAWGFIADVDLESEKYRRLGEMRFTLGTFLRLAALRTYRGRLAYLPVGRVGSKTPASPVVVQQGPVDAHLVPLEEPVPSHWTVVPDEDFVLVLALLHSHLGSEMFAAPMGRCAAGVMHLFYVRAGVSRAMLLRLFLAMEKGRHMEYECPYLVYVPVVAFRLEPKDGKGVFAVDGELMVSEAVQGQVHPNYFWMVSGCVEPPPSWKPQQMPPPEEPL
mouse SphK2, sequence (Q9JIA7 whole entry): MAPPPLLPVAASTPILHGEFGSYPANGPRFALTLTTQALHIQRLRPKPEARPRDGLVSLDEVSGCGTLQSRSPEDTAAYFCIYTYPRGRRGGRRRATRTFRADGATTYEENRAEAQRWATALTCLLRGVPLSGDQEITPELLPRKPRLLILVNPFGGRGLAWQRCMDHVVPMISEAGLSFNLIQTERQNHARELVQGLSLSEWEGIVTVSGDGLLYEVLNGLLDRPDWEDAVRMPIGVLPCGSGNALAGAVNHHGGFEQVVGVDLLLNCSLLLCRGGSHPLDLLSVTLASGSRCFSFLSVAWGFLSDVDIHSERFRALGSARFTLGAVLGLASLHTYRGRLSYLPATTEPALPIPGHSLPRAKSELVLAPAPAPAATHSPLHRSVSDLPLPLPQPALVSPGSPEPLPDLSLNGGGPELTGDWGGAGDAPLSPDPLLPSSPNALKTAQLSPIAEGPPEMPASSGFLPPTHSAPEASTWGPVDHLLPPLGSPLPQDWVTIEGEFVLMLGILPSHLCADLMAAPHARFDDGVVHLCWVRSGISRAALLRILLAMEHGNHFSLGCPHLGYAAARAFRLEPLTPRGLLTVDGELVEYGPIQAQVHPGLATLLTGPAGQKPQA

Ki (human SphK1) [µM]	Ki (mouse SphK2) [µM]	SMILES	conversion of amidoxime pro-drug to amidine congener VPC96077 (accumulation in plasma) [1]
		CCCCCCCCCCCc1ccc(C(=O)N2CCC[C@H]2/C(N)=N/O)cc1 [VPC96143]	conversion of the amidoxime to the amidine in vivo
0.5	> 10	N/C(=N\O)C1(C(=O)Nc2ccc(CCCCCCCCCc3ccccc3)cc2)CC1 [VPC143129]	
